In article PMC4735493, “The Biological Effects of Bilirubin Photoisomers” (PLoS ONE, 2016):
Read-outs that look alike come from different tables or passages of the source. Marks after values point to notes of the source that are not given here.

Columns and labels:
[1] = target: T1, human serum albumin (HSA) (Homo sapiens, UniProt P02768); experiment: Binding constant by fluorescence quenching of intrinsic Trp fluorescence
Description: Thus, the binding constant for bilirubin and lumirubin to HSA was determined by quenching of the intrinsic Trp fluorescence. […] F0 was the fluorescence of HSA without a quencher, F the fluorescence of HSA with a quencher, CL was the quencher concentration, and CP was the concentration of HSA. The effect of cooperative binding of lumirubin and bilirubin was also studied, and the results were compared to the Ka obtained in the systems with biliverdin and gossypol, which served as a displacing agent of bilirubin from HSA [31, 32].

[2] = tested on: SH-SY5Y human neuroblastoma cell line; experiment: Cell viability (CellTiter-Glo and MTT); type: cell-based
Description: The SH-SY5Y human neuroblastoma cell line was used for the in vitro studies (ATCC, Manassas, VA, USA). Authentication of the cell line was confirmed by independent laboratory (Generi Biotech, Czech Republic). The cells were tested for Mycoplasma contamination using the MycoAlert luminescence test (Lonza, Switzerland). Cells were cultured in a mixture of MEM Eagle and Ham’s F12 media (1:1, v/v), containing 15% of fetal bovine serum, in 75 cm^2 culture flasks, at 37°C, in a 5% CO2 atmosphere. For functional tests, cells were seeded at a concentration of 50,000 cells per 1 cm^2.
The effect of bilirubin (24 μM), pure bilirubin PI (5%, 15%, and 30% of bilirubin PI in complete culture media), and the combination of bilirubin with bilirubin PI on cell viability was analyzed by both MTT (Sigma, Germany) as well as by luminescent CellTiter-Glo (Promega, USA) tests, using a Sunrise Microplate Reader (Tecan, Austria) and Synergy 2 Multi-mode Microplate Reader (BioTek, USA), respectively.

HMOX1 = experiment: Gene expression by real-time PCR: HMOX1; type: cell-based, human; conditions: SH-SY5Y; bilirubin 24 μM, PI 15%; median (IQ range), n = 5; 1 hr exposure
Description: (§1) Briefly, total RNA was isolated in TriReagent (Sigma-Aldrich, St Louis, MO, USA) according to the manufacture's protocol and stored at -80°C until analysis. RNA quantity and purity were evaluated spectrophotometrically at 260 nm, and RNA integrity was evaluated by agarose gel electrophoresis. Retrotranscription of total RNA (1 μg) was performed with an iScript cDNA Synthesis Kit (Bio-Rad Laboratories, Hercules, CA, USA) according to the manufacturer's instructions. The final cDNA was conserved at -20°C until used. The primers for the targeted genes and the two housekeeping genes [hypoxanthine-guanine phosphoribosyltransferase (Hprt1) and glyceraldehydes 3-phosphate dehydrogenase (Gapdh)] were designed using Beacon Designer 2.0 software (PREMIER Biosoft International, Palo Alto, CA, USA). The quantitative analysis of gene expression was performed by real-time PCR. […] The relative quantification was made using iCycler iQ software, version 3.1 (Bio-Rad Laboratories, Hercules, CA, USA), by the ΔΔCt method, taking into account the efficiencies of the individual's genes, and normalizing the results to the two housekeeping genes. […] The results are expressed as the mean ± SD.

HMOX2 = experiment: Gene expression by real-time PCR: HMOX2; type: cell-based, human; conditions: SH-SY5Y; bilirubin 24 μM, PI 15%; median (IQ range), n = 5; 1 hr exposure
Description: as §1

BLVRA = experiment: Gene expression by real-time PCR: BLVRA; type: cell-based, human; conditions: SH-SY5Y; bilirubin 24 μM, PI 15%; median (IQ range), n = 5; 1 hr exposure
Description: as §1

MRP1 = experiment: Gene expression by real-time PCR: MRP1; type: cell-based, human; conditions: SH-SY5Y; bilirubin 24 μM, PI 15%; median (IQ range), n = 5
Description: as §1, with “The effect of bilirubin and bilirubin PI (24 μM bilirubin (corresponding to 140 nM Bf), 15% bilirubin PI, and a mixture of bilirubin and 15% PI) on the expression of genes involved in heme catabolism and in the regulation of the cell cycle (Table 1) was investigated in SH-SY5Y cells exposed to pigments for 1 and 24 hrs, respectively. Briefly,” for “Briefly,”, “The primers for the targeted genes and the two housekeeping genes [hypoxanthine-guanine phosphoribosyltransferase (Hprt1) and glyceraldehydes 3-phosphate dehydrogenase (Gapdh)] were designed using Beacon Designer 2.0 software (PREMIER Biosoft International, Palo Alto, CA, USA).” left out

MDR1 = experiment: Gene expression by real-time PCR: MDR1; type: cell-based, human; conditions: SH-SY5Y; bilirubin 24 μM, PI 15%; median (IQ range), n = 5
Description: as §1, with “The effect of bilirubin and bilirubin PI (24 μM bilirubin (corresponding to 140 nM Bf), 15% bilirubin PI, and a mixture of bilirubin and 15% PI) on the expression of genes involved in heme catabolism and in the regulation of the cell cycle (Table 1) was investigated in SH-SY5Y cells exposed to pigments for 1 and 24 hrs, respectively. Briefly,” for “Briefly,”, “The primers for the targeted genes and the two housekeeping genes [hypoxanthine-guanine phosphoribosyltransferase (Hprt1) and glyceraldehydes 3-phosphate dehydrogenase (Gapdh)] were designed using Beacon Designer 2.0 software (PREMIER Biosoft International, Palo Alto, CA, USA).” left out

Cyclin D1 = experiment: Gene expression by real-time PCR: Cyclin D1; type: cell-based, human; conditions: SH-SY5Y; bilirubin 24 μM, PI 15%; median (IQ range), n = 5
Description: as §1

Cyclin E = experiment: Gene expression by real-time PCR: Cyclin E; type: cell-based, human; conditions: SH-SY5Y; bilirubin 24 μM, PI 15%; median (IQ range), n = 5
Description: as §1

heme oxygenase (HMOX) = experiment: Heme oxygenase activity determination (CO by gas chromatography); type: cell-based, human; conditions: SH-SY5Y; data not shown
Description: The activity of heme oxygenase (HMOX) was measured as described previously. In brief, culture media harvested from SH-SY5Y batches were added to CO-free, septum-sealed vials. CO released into the vial headspace was quantified using gas chromatography with a reduction gas analyzer (Peak Laboratories, Mountain View, CA, USA).

SH-SY5Y cells = experiment: Cell cycle phase by flow cytometry (propidium iodide); type: cell-based, human; conditions: bilirubin 24 μM, PI 15%, 1 and 24 hrs exposure, data not shown
Description: After centrifugation (310 x g; RT; 6 min), the sediments were re-suspended in 1 ml of staining solution in PBS containing 0.1% v/v Triton X-100, 20 μg/ml propidium iodide (PI), and 0.2 mg/ml DNAse free RNaseA. Samples were incubated in the dark for 30 min at RT, and subjected to FACS analysis (cytometer BD FACSCalibur TM; and CellQuest software, BD Biosciences, San Jose, CA). Data were collected for 10,000 events per sample.

[3] = Stability of pigments in the incubation medium by HPLC
Description: The HPLC analyses were performed using an Agilent 1200 system (CA, USA) with a diode-array detector. […] The mobile phase consisted of 0.1 M di-n-octylamine acetate in methanol and water; the stationary phase was represented by a Poroshell 120, SB-C18 column (4.6 x 100 mm, 2.7 μm; Agilent, CA, USA). Samples were prepared by mixing 20 μl of bilirubin solution with 180 μl of ice-cold 0.1 M di-n-octylamine acetate in methanol, then vortexed and centrifuged to eliminate proteins. Twenty μl of the prepared sample was injected onto the column.
To check the stability of bilirubin PI, concentrations of bilirubin IXα, and EZ/ZE-bilirubins as well as Z-lumirubin after 1 and 24 hrs in the incubation medium were analysed by HPLC method (see above).

[4] = target: T1, human serum albumin (HSA); experiment: Characterization of albumin binding sites by circular dichroism (CD) spectroscopy with marker ligands
Text: CD spectra were obtained using a J-810 spectropolarimeter (Jasco, Japan) and analyzed as described elsewhere. […] For determination of the subdomain for lumirubin binding two compounds were used, hemin and bilirubin, as marker ligands for subdomain IB and IIA, respectively.

T1 sequence (P02768 25-609): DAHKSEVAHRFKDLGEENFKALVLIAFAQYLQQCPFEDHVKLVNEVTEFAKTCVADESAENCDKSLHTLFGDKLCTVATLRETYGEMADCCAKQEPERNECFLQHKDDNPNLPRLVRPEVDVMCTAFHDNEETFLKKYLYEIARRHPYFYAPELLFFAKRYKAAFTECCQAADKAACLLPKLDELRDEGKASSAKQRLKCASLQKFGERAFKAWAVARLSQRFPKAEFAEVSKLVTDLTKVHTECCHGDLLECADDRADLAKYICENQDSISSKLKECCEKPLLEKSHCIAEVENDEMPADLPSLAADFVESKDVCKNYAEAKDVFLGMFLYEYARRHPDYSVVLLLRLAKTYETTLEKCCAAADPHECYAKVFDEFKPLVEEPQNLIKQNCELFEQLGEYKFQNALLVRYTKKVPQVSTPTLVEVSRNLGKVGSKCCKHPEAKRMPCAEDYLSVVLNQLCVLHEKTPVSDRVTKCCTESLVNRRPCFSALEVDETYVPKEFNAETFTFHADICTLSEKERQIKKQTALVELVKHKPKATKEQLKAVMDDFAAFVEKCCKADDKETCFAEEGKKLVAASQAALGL

C=CC1=C(C)/C(=C/c2[nH]c(Cc3[nH]c(/C=C4\NC(=O)C(C)=C4C=C)c(C)c3CCC(=O)O)c(CCC(=O)O)c2C)NC1=O [bilirubin, Z,Z-Bilirubin IXα]
Kd [1]: 5.56 nM
Ka, binding constant bilirubin-(HSA-biliverdin) ([1]; bilirubin binding to HSA in presence of biliverdin): (1.1±0.4)·10^8 M^-1
Ka, binding constant bilirubin-(HSA-gossypol) ([1]; bilirubin binding to HSA in presence of gossypol (displacer)): (1.4±0.2)·10^5 M^-1
Ka, binding constant bilirubin-(HSA-lumirubin) ([1]; bilirubin binding to HSA in presence of lumirubin): (8.7±1.3)·10^7 M^-1
Effect on cell viability, short-term exposure ([2]; 60 min exposure, data not shown): did not have any effect on cell viability
Effect on cell viability, 24 hr ([2]; 24 hr, bilirubin 24 μM, PI up to 30%, n = 7): significantly reduced
Effect on cell viability, 48 hr ([2]; 48 hr, bilirubin 24 μM, PI up to 30%, n = 4): significantly reduced
HMOX1 mRNA expression (HMOX1): 232.2 (197–240) ^* % of control
HMOX2 mRNA expression (HMOX2): 130.3 (129–166) ^* % of control
BLVRA mRNA expression (BLVRA): 142.9 (109–179) % of control
MRP1 mRNA expression (MRP1): 76.3 (71–90) % of control
MDR1 mRNA expression (MDR1): 54.9 (35–84) % of control
Cyclin D1 mRNA expression (Cyclin D1): 71.8 (64–157) % of control
Cyclin E mRNA expression (Cyclin E): 78.9 (50–126) % of control
Effect on HMOX activity (heme oxygenase (HMOX)): not translated onto increase of HMOX activity
Effect on cell cycle progression (SH-SY5Y cells): no effect on the cell cycle progression
Stability after 24 hrs in the incubation medium [3]: stable

C=CC1=C(C)/C(=C/c2[nH]c(CC3=C(CCC(=O)O)C4(C)CC=C5C(=CC4=N3)NC(=O)C5C)c(CCC(=O)O)c2C)NC1=O (stereo not shown) [lumirubin, Z-Lumirubin IXα]
Kd ([1]; ligand bound to HSA alone, fluorescence quenching, read-out: Ka, binding constant for the ligand-HSA complex): 1080 nM
Effect on bilirubin binding to HSA (CD signal) ([4]; both bilirubin and hemin bound to HSA, molar ratio 1/1/1): moderately affects bilirubin binding to HSA
Localization of binding site on HSA ([4]; marker ligands hemin (IB) and bilirubin (IIA), molar ratio 1/1/1): subdomain IB
Number of binding sites on HSA ([4]; pigment/HSA 1/1, 1.5 x 10^-5 mol/L, PBS pH 7.4): one binding site
Concentration remaining after 24 hrs in the incubation medium [3]: 31%
